Source: the NIST ThermoML archive (doi:10.1021/acs.jced.9b00308)
± gives the expanded uncertainty stated by the source.

What was measured:
[1] = Crystal 1; DSC
[2] = Molar enthalpy of transition or fusion; details: Crystal 1; DSC

Triple point temperature [1]: 393.93 ± 4.1 K
Molar enthalpy of transition or fusion [2]: 3.94 ± 0.717 kcal/mol
SMILES: O=C1Cc2ccccc2N1 [indolin-2-one]
